From patent publication US20230129438A1, “IMMUNOMODULATING IMINE-OXAZOLINE AZALIDES” (Zoetis Services LLC, priority 2020, published 2023)
Converted amounts (≈) assume the structure as drawn.

Assays:
TNF-α = experiment: Bovine whole blood assay, LPS-induced TNF-α; format: cell-based; settings: LPS 1 μg/mL
Experimental: (§1) (protected from light) for 30 minutes.

IL-1β = experiment: Bovine whole blood assay, IL-1β; format: cell-based; settings: drug concentration giving overstimulation of IL-1β over LPS (cellular toxicity signal)
Experimental: as §1

IL-6 = experiment: Bovine whole blood assay, LPS-induced IL-6; format: cell-based; settings: LPS 1 μg/mL
M. haemolytica = experiment: In-vitro MIC model, M. haemolytica; format: cell-based
P. multocida [1] = experiment: In-vitro MIC model, P. multocida; format: cell-based
P. multocida 46572 = experiment: In vivo mouse lung infection challenge model (murine efficacy model); settings: for % Survival: 20 mg/kg subcutaneous, CD-1 mice, intranasal challenge, to Day 10, approximate (~%), harmonized relative to vehicle and M9
E. coli = experiment: In-vitro MIC model, E. coli
S. aureus = experiment: In-vitro MIC model, S. aureus; settings: S. aureus ATCC 29213
H. somni = experiment: In-vitro MIC model, H. somni; format: cell-based; settings: lung isolates at necropsy, natural BRD study, H. somni (25)
[2] = test system: bovine respiratory disease (BRD); experiment: Natural bovine respiratory disease study; format: in vivo, beef calves; settings: T04, dose not given, 14-day observation; saline 43%
P. multocida [3] = experiment: Murine P. multocida intranasal challenge study with lung tissue RNA sequence analysis; format: in vivo, mouse; settings: placebo 0%
Experimental: In one murine P. multocida intranasal challenge study, mice were administered tulathromycin (16 mg/kg; T02), M9 (32 mg/kg; T03), or ceftiofur (9 mg/kg; T04) by subcutaneous injection 18 hours after bacterial challenge (5×10^3 CFU/mouse) for lung tissue RNA sequence analysis. Survival at Day 7 was about 80%, 50%, and 90% for T02, T03, and T04, respectively, compared to placebo at 0%. Differential gene expression from total lung tissue RNA sequence analysis indicated at least 226 unique genes were up or down regulated (with significance) for T03. Output from ingenuity pathway analysis of these unique genes predicted major upstream regulators of the involved pathways. Data was analyzed based on the number of genes being modulated in the same direction that were associated with a given upstream regulator. An activation z-score of 2 or greater is considered significant and the direction change is indicated by + (activated) or − (inhibited). The top 5 pathways included: IL-9 signaling, glucocorticoid receptor signaling, prolactin signaling, JAK STAT signaling, and IL-17 signaling. The top 6 upstream regulators (activation z-score) included: lipopolysaccharide (−6.725), TNF (−4.669), IFNγ (−5.759), IL-1β (−5.947), STAT1 (−2.787), and poly rI:rC-RNA (−5.289). Even though this study was run in the murine model, the top upstream regulators identified as being modulated by M9 include an almost ubiquitous overlap with the pathways identified in the natural disease study as being key mediators in BRD, and therefore is modulating highly relevant pathways in BRD pathobiology.

[4] = test system: M. haemolytica (strain: OSU-012103-BHI); experiment: Bovine M. haemolytica intratracheal lung challenge model; format: in vivo
[5] = lung isolates at necropsy, natural BRD study, M. haemolytica (116)
[6] = lung isolates at necropsy, natural BRD study, P. multocida (33)

CCCNC[C@]1(O)[C@H](C)O[C@@H](O[C@H]2[C@H](C)[C@@H](O[C@@H]3O[C@H](C)C[C@H]4[C@H]3OC(=Nc3ccccc3)N4C)[C@](C)(O)C[C@@H](C)CN(C)[C@H](C)[C@@H](O)[C@](C)(O)[C@@H](CC)OC(=O)[C@@H]2C)C[C@@]1(C)OC (mixture of isomers) [Example A-31, (E/Z)-(2R,3S,4R,5R,8R,10R,11R,12S,13S,14R)-11-(((3aR,4S,6R,7aS)-1,6-dimethyl-2-(phenylimino)hexahydro-2H-pyrano[4,3-d]oxazol-4-yl)oxy)-2-ethyl-3,4,10-trihydroxy-13-(((2R,4R,5S,6S)-5-hydroxy-4-methoxy-4,6-dimethyl-5-((propylamino)methyl)tetrahydro-2H-pyran-2-yl)oxy)-3,5,6,8,10,12,14-heptamethyl-1-oxa-6-azacyclopentadecan-15-one]
IC50 (TNF-α): 7 µM | IL-Iβ OS of LPS (IL-1β): >250 µM | IC50 (IL-6): 10 µM

CC[C@H]1OC(=O)[C@H](C)[C@@H](O[C@H]2C[C@@](C)(OC)[C@](O)(CNCCOC)[C@H](C)O2)[C@H](C)[C@@H](O[C@@H]2O[C@H](C)C[C@H]3[C@H]2OC(=Nc2ccc(OC)cc2)N3C)[C@](C)(O)C[C@@H](C)CN[C@H](C)[C@@H](O)[C@]1(C)O (mixture of isomers) [Example A-13, (E/Z)-(2R,3S,4R,5R,8R,10R,11R,12S,13S,14R)-2-ethyl-3,4,10-trihydroxy-13-(((2R,4R,5S,6S)-5-hydroxy-4-methoxy-5-(((2-methoxyethyl)amino)methyl)-4,6-dimethyltetrahydro-2H-pyran-2-yl)oxy)-11-(((3aR,4S,6R,7aS)-2-((4-methoxyphenyl)imino)-1,6-dimethylhexahydro-2H-pyrano[4,3-d]oxazol-4-yl)oxy)-3,5,8,10,12,14-hexamethyl-1-oxa-6-azacyclopentadecan-15-one]
MIC (M. haemolytica; M. haemolytica 12726): >64 µg/mL | MIC (M. haemolytica; M. haemolytica 46571, bovine efficacy challenge strain): >64 µg/mL | MIC (M. haemolytica; M. haemolytica ATCC 33396): >64 µg/mL | MIC (P. multocida [1]; P. multocida 46572, murine efficacy challenge strain): >64 µg/mL | MIC (P. multocida [1]; P. multocida ATCC 43137): >64 µg/mL | IC50 (TNF-α): 5 µM | IL-Iβ OS of LPS (IL-1β): 32 µM | % Survival (P. multocida 46572): 37% | clinical efficacy, in words (P. multocida 46572; P. multocida infection in mice): clinically efficacious | MIC (E. coli; E. coli ATCC 25922): >64 µg/mL | MIC (E. coli; E. coli W3110): >64 µg/mL | MIC (S. aureus): >64 µg/mL

CCCN1C[C@H](C)[C@@H](O)[C@](C)(O)[C@@H](CC)OC(=O)[C@H](C)[C@@H](O[C@H]2C[C@@](C)(OC)[C@@H](O)[C@H](C)O2)[C@H](C)[C@@H](O[C@@H]2O[C@H](C)C[C@H](N(C)C)[C@H]2O)[C@](C)(O)C[C@H]1C [gamithromycin, reference compound]
MIC50 (M. haemolytica; [5]): 1 µg/mL (≈ 1.29 µM) | MIC90 (M. haemolytica; [5]): >64 µg/mL | MIC values, range over strains (M. haemolytica; the same M. haemolytica screening strains): 0.5 to 1 µg/mL | MIC50 (P. multocida [1]; [6]): 1 µg/mL (≈ 1.29 µM) | MIC90 (P. multocida [1]; [6]): >64 µg/mL | MIC values, range over strains (P. multocida [1]; the same P. multocida screening strains): 1 to 2 µg/mL | MIC50 (H. somni): 0.25 µg/mL (≈ 0.322 µM) | MIC90 (H. somni): 2 µg/mL (≈ 2.57 µM) | Percent failure (treatment failure) [2]: 29.8%

CO/N=C(\C(=O)N[C@@H]1C(=O)N2C(C(=O)O)=C(CSC(=O)c3ccco3)CS[C@H]12)c1csc(N)n1 [ceftiofur]
Survival at Day 7 (P. multocida [3]; 9 mg/kg subcutaneous 18 hours after challenge (T04)): ~90%

CCCNC[C@]1(O)[C@H](C)O[C@@H](O[C@H]2[C@H](C)[C@@H](O[C@@H]3O[C@H](C)C[C@H](N(C)C)[C@H]3O)[C@](C)(O)C[C@@H](C)CN[C@H](C)[C@@H](O)[C@](C)(O)[C@@H](CC)OC(=O)[C@@H]2C)C[C@@]1(C)OC [tulathromycin, (2R,3S,4R,5R,8R,10R,11R,12S,13S,14R)-11-(((2S,3R,4S,6R)-4-(dimethylamino)-3-hydroxy-6-methyltetrahydro-2H-pyran-2-yl)oxy)-2-ethyl-3,4,10-trihydroxy-13-(((2R,4R,5S,6S)-5-hydroxy-4-methoxy-4,6-dimethyl-5-((propylamino)methyl)tetrahydro-2H-pyran-2-yl)oxy)-3,5,8,10,12,14-hexamethyl-1-oxa-6-azacyclopentadecan-15-one]
Survival at Day 7 (P. multocida [3]; 16 mg/kg subcutaneous 18 hours after challenge (T02)): about 80% | Mortality ([4]; T03: 2.5 mg/kg subcutaneous Day −1, M. haemolytica challenge Day 0, saline 4/6): 0/6 | IL-6 levels, in words ([4]; bovine M. haemolytica challenge, blood biomarker): significantly reduced

CC[C@H]1OC(=O)[C@H](C)[C@@H](O[C@H]2C[C@@](C)(OC)[C@](O)(CNCC(C)C)[C@H](C)O2)[C@H](C)[C@@H](O[C@@H]2O[C@H](C)C[C@H]3[C@H]2OC(=Nc2ccc(OC)nc2)N3C)[C@](C)(O)C[C@@H](C)CN[C@H](C)[C@@H](O)[C@]1(C)O (mixture of isomers) [Example A-28, (E/Z)-(2R,3S,4R,5R,8R,10R,11R,12S,13S,14R)-2-ethyl-3,4,10-trihydroxy-13-(((2R,4R,5S,6S)-5-hydroxy-5-((isobutylamino)methyl)-4-methoxy-4,6-dimethyltetrahydro-2H-pyran-2-yl)oxy)-11-(((3aR,4S,6R,7aS)-2-((6-methoxypyridin-3-yl)imino)-1,6-dimethylhexahydro-2H-pyrano[4,3-d]oxazol-4-yl)oxy)-3,5,8,10,12,14-hexamethyl-1-oxa-6-azacyclopentadecan-15-one]
IC50 (TNF-α): 8 µM | IL-Iβ OS of LPS (IL-1β): 16 µM | IC50 (IL-6): 20 µM | % Survival (P. multocida 46572): 53%

CC[C@H]1OC(=O)[C@H](C)[C@@H](O[C@H]2C[C@@](C)(OC)[C@](O)(CNCC3CC3)[C@H](C)O2)[C@H](C)[C@@H](O[C@@H]2O[C@H](C)C[C@H]3[C@H]2OC(=Nc2ccc(OC)nc2)N3C)[C@](C)(O)C[C@@H](C)CN[C@H](C)[C@@H](O)[C@]1(C)O (mixture of isomers) [Example A-25, (E/Z)-(2R,3S,4R,5R,8R,10R,11R,12S,13S,14R)-13-(((2R,4R,5S,6S)-5-(((cyclopropylmethyl)amino)methyl)-5-hydroxy-4-methoxy-4,6-dimethyltetrahydro-2H-pyran-2-yl)oxy)-2-ethyl-3,4,10-trihydroxy-11-(((3aR,4S,6R,7aS)-2-((6-methoxypyridin-3-yl)imino)-1,6-dimethylhexahydro-2H-pyrano[4,3-d]oxazol-4-yl)oxy)-3,5,8,10,12,14-hexamethyl-1-oxa-6-azacyclopentadecan-15-one]
IC50 (TNF-α): 2.5 µM | IL-Iβ OS of LPS (IL-1β): 16 µM | IC50 (IL-6): 4 µM | % Survival (P. multocida 46572): 26%

CCCNC[C@]1(O)[C@H](C)O[C@@H](O[C@H]2[C@H](C)[C@@H](O[C@@H]3O[C@H](C)C[C@H]4[C@H]3OC(=Nc3ccccc3)N4CC(C)C)[C@](C)(O)C[C@@H](C)CN[C@H](C)[C@@H](O)[C@](C)(O)[C@@H](CC)OC(=O)[C@@H]2C)C[C@@]1(C)OC (mixture of isomers) [Example A-32, (E/Z)-(2R,3S,4R,5R,8R,10R,11R,12S,13S,14R)-2-ethyl-3,4,10-trihydroxy-13-(((2R,4R,5S,6S)-5-hydroxy-4-methoxy-4,6-dimethyl-5-((propylamino)methyl)tetrahydro-2H-pyran-2-yl)oxy)-11-(((3aR,4S,6R,7aS)-1-isobutyl-6-methyl-2-(phenylimino)hexahydro-2H-pyrano[4,3-d]oxazol-4-yl)oxy)-3,5,8,10,12,14-hexamethyl-1-oxa-6-azacyclopentadecan-15-one]
IC50 (TNF-α): 5 µM | IL-Iβ OS of LPS (IL-1β): 2 µM | IC50 (IL-6): 2 µM
